Measured values taken from ChEMBL document CHEMBL4385590, “A Survey of the Structures of US FDA Approved Combination Drugs” (J Med Chem, 2019).

Test: Half-life in human serum administered once daily

half-life: 10 h
SMILES: Nc1nc(=O)n([C@@H]2CS[C@H](CO)O2)cc1F [EMTRICITABINE]
